“Also recorded” adds a separate entry of the source.
How the values were obtained:
[1] = tested on: rat carotid artery thrombosis; assay: Rat carotid artery thrombosis model (FeCl3 injury), Example 3; format: in vivo
Text: In order to evaluate the efficacy of anti-Factor IX antibodies in prevention of arterial thrombosis, the rat carotid artery thrombosis model as reported by Schumacher et al. in J. Cardio. Pharm. 22, 526-533 (1993) was adapted. This model consists of segmental injury to the carotid endothelium by oxygen radicals generated by FeCl3 solution applied on the surface of the carotid artery.
In brief, rats were anesthetized with pentobarbitone sodium, the jugular vein cannulated for intravenous injections and the left femoral artery cannulated for blood pressure and heart rate monitoring. The carotid artery was isolated by aseptic technique via a surgical incision in the neck and equipped with a magnetic flow probe for blood flow measurement. After a period of stabilization, baseline parameters were established for the following variables: carotid blood flow, arterial pressure, heart rate, activated partial thromboplastin time (aPTT) and prothrombin time (PT). Thereafter, a premeasured Whatman filter paper soaked in 50% FeCl3 solution was placed on the carotid artery for 15 minutes for complete injury of the underlying endothelial cells. After removal of the FeCl3 soaked paper, the experiment was followed to completion over 60 minutes. At the end of the experiment, the carotid thrombus was extracted from the carotid artery and weighed.
All agents were administered 15 minutes prior to the onset of carotid injury. The following treatments were examined and compared to the Factor IX mAb BC2.
1. Heparin: 15, 30, 60 or 120 U/kg bolus, followed by infusion of 0.5, 1, 2 or 4 U/kg/min, respectively over 60 minutes
2. Acetylsalicylic acid (ASA, aspirin): 5 mg/kg bolus
3. Anti-Factor IX mAb BC2: 1, 3 or 6 mg/kg bolus, followed by infusion 0.3, 1, or 2 ug/kg/min, respectively over 60 minutes
4. Heparin: 30U/kg bolus+lU/kg/min+ASA at 5 mg/kg
5. Anti-Factor IX mAb BC2: 1 mg/kg+0.3 ug/kg/min+ASA at 5 mg/kg

BC2 antibody = assay: BiaCore binding of Factor IX/Factor VII constructs to immobilized BC2; conditions: for Degree of Binding to BC2: 200 nM construct, 25 mM MOPS pH 7.4, 0.15 M NaCl, 5 mM CaCl2
Procedure: A library of chimeric constructs composed of sequences of Factor IX spliced into the framework of the homologous protein Factor VII was constructed and used to map the epitope for the Factor IX BC2 mAb. See Cheung et al., Thromb. Res. 80, 419-427 (1995). Binding was measured using a BiaCore 2000 surface plasmon resonance device. The BC2 antibody was coupled directly to the chip using the NHS/EDC reaction. Binding was measured by 2 min of contact time at 20 uL/min with 200 nM of each of the given constructs in 25 mM MOPS, pH 7.4, 0.15 M NaCl, 5 mM CaCl2. Dissociation was monitored for 3 min using the same buffer with no protein. No binding was detected to the wild type construct in the presence of 50 mM EDTA.

Compound	Degree of Binding to BC2 (BC2 antibody)	also measured
CC(=O)Oc1ccccc1C(=O)O [ASA, Acetylsalicylic acid, reference compound]		effect on carotid artery occlusion (FIG. 6) [1]: only a minor effect; effect on thrombus weight (FIG. 7) [1]: only a partial effect; effect on aPTT at 60 minutes (FIG. 4) ([1]; regimens of b146-b150, given 15 minutes before injury): did not significantly increase aPTT
VII gla (IX 3-11)/IX: residues 3-11 of Factor IX gla domain within the Factor VII gla domain	exhibit binding to BC2; also recorded: equivalent to wild type Factor IX; also recorded: Binds	
Plasma IXa: plasma Factor IXa, wild type Factor IX	Binds	
VII gla (IX 3-6)/IX: chimeric Factor VII/Factor IX construct	Very Low Binding	
IX K5A: Factor IX having a lysine to alanine substitution at residue 5	exhibit binding to BC2; also recorded: Binds	
wild type construct: wild type Factor IX construct used in BC2 epitope mapping		binding to BC2 in the presence of EDTA (BC2 antibody; 50 mM EDTA): No binding

Second part, led by results:

Degree of Binding to BC2 (BC2 antibody)	Compound	also measured
Binds	r-IX: recombinant wild type Factor IX	
No Binding	VII gla/IX: chimeric Factor VII/Factor IX construct	
No Binding	Plasma VII: plasma Factor VII	
Very Low Binding	VII gla (IX 9-11)/IX: chimeric Factor VII/Factor IX construct	
